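Grown in 96-well plates, cells were treated for 48 hours with each compound at five concentrations. Insufficient inhibition: endpoint recorded as highest concentration tested. Here, GI50 denotes the concentration required for 50% inhibition of growth.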 Calls of active or inactive are those of the source. No stated cut-off is given here; in the data, active = GI50 up to about 1.1 µM and inactive = higher.
Legend:
Experiment in all cases: NCI anticancer screen, dose series, 48 h
M14 = test system: M14
U-251 = test system: U-251
NCI-H23 = test system: NCI-H23
SF-539 = test system: SF-539
NCI-H460 = test system: NCI-H460
MCF7 = test system: MCF7
A498 = test system: A498
HCC 2998 = test system: HCC 2998
NCI-H522 = test system: NCI-H522
OVCAR-3 = test system: OVCAR-3
SK-MEL-5 = test system: SK-MEL-5
DU-145 = test system: DU-145
HCT-15 = test system: HCT-15
MDA-MB-435 = test system: MDA-MB-435
SN12C = test system: SN12C
SF-295 = test system: SF-295
A549 = test system: A549
SNB-19 = test system: SNB-19
NCI-H226 = test system: NCI-H226
UACC-62 = test system: UACC-62

Measured: GI50

O=C(CCc1ccccc1CO)NCCc1ccccc1
inactive: M14 > 100 µM | U-251 > 100 µM | NCI-H23 > 100 µM | SF-539 > 100 µM | NCI-H460 > 100 µM | MCF7 > 100 µM | A498 > 100 µM | HCC 2998 > 100 µM | NCI-H522 > 100 µM | OVCAR-3 > 100 µM | SK-MEL-5 > 100 µM | DU-145 > 100 µM | MDA-MB-435 > 100 µM | SN12C > 100 µM | SF-295 > 100 µM | A549 > 100 µM | SNB-19 15.9 µM | NCI-H226 > 100 µM | UACC-62 > 100 µM
> 100 µM: HCT-15

CC1=CCCC(C)(O)C2CC(CCC3(C)OC3CC1)C(C)C(=O)O2 (stereo not given)
> 100 µM: HCT-15
inactive: M14 > 100 µM | U-251 > 100 µM | NCI-H23 > 100 µM | SF-539 > 100 µM | NCI-H460 > 100 µM | MCF7 > 100 µM | A498 > 100 µM | HCC 2998 > 100 µM | NCI-H522 > 100 µM | OVCAR-3 > 100 µM | SK-MEL-5 > 100 µM | DU-145 > 100 µM | MDA-MB-435 > 100 µM | SN12C > 100 µM | SF-295 > 100 µM | A549 > 100 µM | SNB-19 > 100 µM | NCI-H226 > 100 µM | UACC-62 > 100 µM

COc1cccc2c1C(=O)c1c(O)c3c(c(O)c1C2=O)C[C@@](O)(C(=O)CO)CC3OC1CC(O)C(O)C(C)O1 (stereo not given in full)
active: M14 0.361 µM | U-251 0.0679 µM | NCI-H23 0.0879 µM | SF-539 < 0.0358 µM | NCI-H460 < 0.01 µM | MCF7 < 0.01 µM | A498 0.171 µM | HCC 2998 0.562 µM | NCI-H522 0.211 µM | OVCAR-3 0.583 µM | SK-MEL-5 0.142 µM | DU-145 0.0294 µM | MDA-MB-435 0.834 µM | SN12C 0.115 µM | SF-295 0.104 µM | A549 0.104 µM | SNB-19 0.0822 µM | NCI-H226 0.0218 µM | UACC-62 0.125 µM
0.397 µM: HCT-15

— ChEMBL document CHEMBL1201862, “PubChem BioAssay data set” (2004)
